Source: PMC11990615 (Molecules, 2025)
Values joined by “and” are separate entries in the source; they are usually repeats but may differ in a detail not shown here. Identical values can stand only once.

How the values were obtained:
[1] = test system: Colletotrichum gloeosporioides; experiment: Fungicidal activity, mycelial growth inhibition on PDA plates; details: for inhibition at 26.5 µM: read-out: Inhibition rate; for Inhibition rate: at a concentration of 26.5 μmol/L; for IC50: mycelial growth, 96 h dark incubation at 26 °C
Experimental: Pure water was used as a negative control. Mycelial plugs with a diameter of 5 mm were positioned in the middle of PDA plates that held various sample concentrations. Every treatment was carried out three times. […] The formula used to compute the suppression of mycelial growth was inhibition (%) = (Dc − Dt)/(Dc − 5) × 100%, where Dc and Dt are the diameters in millimeters of the treatment colony and the control colony, respectively. […] The tests, in turn, constructed t-statistics and determined the signifi-cance of differences between groups.

aquatic organisms = test system: aquatic organisms; set-up: method as in earlier work; details: cited from earlier work
[2] = Interfacial surface tension, Wilhelmy plate method; assay type: physicochemical; details: saturated aqueous solution, 25 °C; no unit printed with the values (method: mN/m)
Experimental: Pure water’s surface tension was used to calibrate the device. After cleaning and drying, the sensing platinum plate was slowly oriented perpendicular to the solution interface. The plate will stop when the liquid surface tension and other relevant forces reach a balance. The interfacial surface tension values of the test chemicals were noted. Each compound was determined with three parallel samples.

[3] = Photostability under UV irradiation (photolysis kinetics); assay type: physicochemical; details: aqueous solution 26.6 μmol/L, 15 W UV lamp 254 nm, 25 °C; for half-life at 26.6 μmol/L: read-out: t1/2, photolysis half-life (converted)
Experimental: Photostability evaluation. […] At different time intervals (0, 0.5, 1, 1.5, 2, 3, 4, and 6 h), 100 μL of the solutions was accurately removed from the vials, diluted tenfold with methanol, and analyzed by HPLC-MS/MS. Instrument specifications are detailed in the Supporting Information.
As dark controls, aluminum foil-wrapped quartz tubes were used to prevent the impact of outside variables. […] The coefficient of determination r^2 was used to describe the goodness of fit of the curves. The half-lives t1/2 of the chemicals were calculated by the following formula:(2) t1/2=−ln(0.5)/K

[4] = set-up: method as in earlier work; details: cited from earlier work
[5] = weak base; no reference given; cited from earlier work
[6] = Octanol-water partition coefficient, shake-flask method; assay type: physicochemical; details: n-octanol/water, 25 °C
Experimental: Initially, a n-octanol solution containing 2000 mg/L of the compound was mixed with water in centrifuge tubes at 1:2, 1:1, and 2:1 volume ratios, with two parallel samples for each ratio. All tubes were shaken at a constant temperature of 25 °C for 3 h. Subsequently, the samples were centrifuged at 4000 rpm for 10 min. The octanol and aqueous phases were then carefully collected and diluted tenfold with methanol, and their concentrations were measured using HPLC-UV and HPLC-MS/MS, respectively. Instrument specifications are detailed in the Supporting Information.

[7] = Colletotrichum gloeosporioides, 96 h

## CCCCCCCCC(=O)O [Nonanoic acids, Nonanoic acid]
[1]; Colletotrichum gloeosporioides
  inhibition at 26.5 µM: 1.8 ± 1.3%

## CC(=O)C(=O)[O-].[Na+] [Sodium pyruvate]
[1]
  Inhibition rate: 3.5 ± 0.2%

## CCCN(CCOc1c(Cl)cc(Cl)cc1Cl)C(=O)n1ccnc1 [Prochloraz, N-propyl-N-(2,4,6-trichlorophenoxy)ethyl-imidazole-1-carboxamide]
[1]; [7]
  IC50: 1.39 µM and 0.52 µg/mL
[1]; Colletotrichum gloeosporioides
  inhibition at 26.5 µM: 100 ± 0.1%
Aquatic organisms
  Concentrations at which embryonic mortality and developmental effects were observed: 2400 ng/mL and 4800 ng/mL
[2]
  Interfacial surface tension: 51.75
[3]
  K, first-order photolysis rate constant: 0.641 h⁻¹
  half-life at 26.6 μmol/L: 1.08 h
[4]
  Photolysis half-life in water: 36 h
[5]
  pKa: 3.8
[6]
  logKow: 3.52

## CCCN(CCOc1c(Cl)cc(Cl)cc1Cl)C(=O)n1ccnc1.O=C(O)c1ccccc1O [[Pro][SalA]] [listing 1 of 2 here]
[1]
  IC50: 1940 nM
[3]
  K, first-order photolysis rate constant: 0.401 h⁻¹

## CC(=O)C(=O)O.CCCN(CCOc1c(Cl)cc(Cl)cc1Cl)C(=O)n1ccnc1 [[Pro][PyrA]]
[3]
  K, first-order photolysis rate constant: 0.383 h⁻¹
  t1/2, photolysis half-life: 1.81 h

## CC(=O)O [Acetic acids, Acetic acid]
[1]
  Inhibition rate: 8.3 ± 2.3%

## O=C([O-])/C=C/c1ccccc1.[Na+] [Sodium cinnamate]
[1]
  Inhibition rate: 2.8 ± 1.1%

## CC(O)C(=O)[O-].[Na+] (stereo not shown) [Sodium lactate]
[1]
  Inhibition rate: 4.0 ± 0.4%

## O=C(O)/C=C/c1ccccc1 [Cinnamic acids, Cinnamic acid]
[1]; Colletotrichum gloeosporioides
  inhibition at 26.5 µM: 7.5 ± 2.4%

## O=C([O-])c1ccccc1.[Na+] [Sodium benzoate]
[1]
  Inhibition rate: 3.0 ± 1.1%

## CCCCCCCCC=CCCCCCCCC(=O)O.CCCN(CCOc1c(Cl)cc(Cl)cc1Cl)C(=O)n1ccnc1 [[Pro][OleA]]
[1]
  IC50: 1.33 µg/mL
[2]
  Interfacial surface tension: 42.53
[3]
  K, first-order photolysis rate constant: 0.552 h⁻¹

## CCCCCCCCC(=O)O.CCCN(CCOc1c(Cl)cc(Cl)cc1Cl)C(=O)n1ccnc1 [[Pro][NonA]]
[2]
  Interfacial surface tension: 41.24
[3]
  K, first-order photolysis rate constant: 0.438 h⁻¹
  t1/2, photolysis half-life: 1.58 h

## CCCN(CCOc1c(Cl)cc(Cl)cc1Cl)C(=O)n1ccnc1.O=C(O)c1ccccc1O [[Pro][SalA]] [listing 2 of 2 here]
[1]; [7]
  IC50: 1 µg/mL
[3]
  half-life at 26.6 μmol/L: 1.73 h

## O=C([O-])c1ccccc1O.[Na+] [Sodium Salicylate]
[1]
  Inhibition rate: 2.0 ± 2.7%

## CCCCCCCCC(=O)[O-].[Na+] [Sodium nonanoate]
[1]
  Inhibition rate: 2.9 ± 0.3%

## CC(O)C(=O)O (stereo not shown) [Lactic acids, Lactic acid]
[1]; Colletotrichum gloeosporioides
  inhibition at 26.5 µM: 6 ± 1%

## CC(O)C(=O)O.CCCN(CCOc1c(Cl)cc(Cl)cc1Cl)C(=O)n1ccnc1 [[Pro][LacA]] [listing 1 of 2 here]
[1]
  IC50: 1740 nM
[3]
  K, first-order photolysis rate constant: 0.391 h⁻¹

## O=C(O)c1ccccc1O [Salicylic acids, Salicylic acid]
[1]; Colletotrichum gloeosporioides
  inhibition at 26.5 µM: 4.5 ± 0.3%

## CCCCCCCC/C=C\CCCCCCCC(=O)O [Oleic acids, Oleic acid]
[1]; Colletotrichum gloeosporioides
  inhibition at 26.5 µM: 3.4 ± 1.3%

## CC(=O)O.CCCN(CCOc1c(Cl)cc(Cl)cc1Cl)C(=O)n1ccnc1 [[Pro][AceA]] [listing 1 of 2 here]
[1]; [7]
  IC50: 0.53 µg/mL
[3]
  half-life at 26.6 μmol/L: 1.73 h

## CC(=O)[O-].[Na+] [Sodium acetate]
[1]
  Inhibition rate: 5.9 ± 0.5%

## CC(=O)O.CCCN(CCOc1c(Cl)cc(Cl)cc1Cl)C(=O)n1ccnc1 [[Pro][AceA]] [listing 2 of 2 here]
[1]
  IC50: 1220 nM
[3]
  K, first-order photolysis rate constant: 0.400 h⁻¹

## CC(=O)C(=O)O [Pyruvic acids, Pyruvic acid]
[1]; Colletotrichum gloeosporioides
  inhibition at 26.5 µM: 4.5 ± 0.4%

## CCCN(CCOc1c(Cl)cc(Cl)cc1Cl)C(=O)n1ccnc1.O=C(O)c1ccccc1 [[Pro][BenA]] [listing 1 of 2 here]
[1]; [7]
  IC50: 1.04 µg/mL
[3]
  half-life at 26.6 μmol/L: 0.9 h

## CC(O)C(=O)O.CCCN(CCOc1c(Cl)cc(Cl)cc1Cl)C(=O)n1ccnc1 [[Pro][LacA]] [listing 2 of 2 here]
[1]; [7]
  IC50: 0.81 µg/mL
[3]
  half-life at 26.6 μmol/L: 1.77 h

## CCCCCCCC/C=C\CCCCCCCC(=O)[O-].[Na+] [Sodium oleate]
[1]
  Inhibition rate: 3.9 ± 2.6%

## CCCN(CCOc1c(Cl)cc(Cl)cc1Cl)C(=O)n1ccnc1.O=C(O)/C=C/c1ccccc1 [[Pro][CinA]]
[1]
  IC50: 2 µM and 1.05 mg/L
[3]
  K, first-order photolysis rate constant: 0.305 h⁻¹

## CCCN(CCOc1c(Cl)cc(Cl)cc1Cl)C(=O)n1ccnc1 [[Pro][OleA]]
[1]
  IC50: 2020 nM

## O=C(O)c1ccccc1 [Benzoic acids, Benzoic acid]
[1]; Colletotrichum gloeosporioides
  inhibition at 26.5 µM: 7.2 ± 1.2%

## CCCN(CCOc1c(Cl)cc(Cl)cc1Cl)C(=O)n1ccnc1.O=C(O)c1ccccc1 [[Pro][BenA]] [listing 2 of 2 here]
[1]
  IC50: 2090 nM
[3]
  K, first-order photolysis rate constant: 0.774 h⁻¹
